Where a name gives a salt, the structure may show the parent alone.
How the values were obtained:
A549 cells = assay: MTT cell proliferation assay, kinase inhibitor plus lometrexol, A549 cells; type: cell-based; details: for IC50 in A549 cells in the presence of increasing concentrations of lometrexol: 48 hours incubation, MTT, IC50 calculated from the untreated cells, FIG. 1 and FIG. 2
Protocol: (§1) A549 and MDA-MB-231 cells were obtained from the ATCC. Cells were propagated in 75 cm^2 flasks in RPMI 1640 medium with 10% fetal bovine serum, 1% penicillin/streptomycin, and 1% glutamine. To initiate the experiment, cells were plated into 96-well plates at 3000 cells/well with the top and bottom rows containing media only as a negative control. The cells were incubated at 37° C. for 15 hours to allow the cells to adhere. After 15 hours, freshly prepared solutions of lometrexol and the appropriate kinase inhibitor (AG1478 or indirubin-3′-monoxime) at the desired dose were added to the media in varying concentrations in a 5×8 matrix of concentrations. Each plate also contained wells that contained medium only and no added compound. The cells were then incubated for 48 hours with the compounds. The relative cell number was determined using the cell proliferation assay reagent MTT. This reagent is converted by mitochondrial dehydrogenases to a colored formazan product that is then quantified by spectrophotometric analysis. […] The relative effect of the compounds was determined by the percentage of the untreated control cells.
The IC50 value was calculated from the untreated cells. […]. […] The data are presented as % growth relative to cells treated with lometrexol alone. The total incubation time with the compounds was 48 hours.

[1] = cited from earlier work
[2] = Storage stability of drug product / reconstituted solution; type: physicochemical; details: reconstituted with 0.9% sodium chloride to approximately 10 mg/mL; vials contain no preservative
Protocol: Lometrexol sodium for injection is supplied for the study as a lyophilised off-white crystalline solid in single-use vials containing either 50 mg or 200 mg of lometrexol sodium. Vials are stored at room temperature and protected from light. Lometrexol sodium is reconstituted with 0.9% sodium chloride for injection to a concentration of approximately 10 mg/mL. […] Lometrexol sodium is not known to be a vesicant. Lometrexol sodium is administered on Day 1 of every 21-day cycle as a rapid (i.e., 30 to 60 seconds) intravenous bolus immediately prior to the dose of carboplatin. At each dose level shown in Table 1, the appropriate dose of lometrexol sodium is based on the patient's actual calculated body surface area (BSA) at the beginning of each cycle. Note: If the patient's BSA is >2.0 m^2 the dose is calculated using a maximum BSA of 2.0 m^2.
Doxorubicin HCl is available commercially available from several manufacturers in liquid or lyophilised form. The lyophilised powder is stable for 2 years when stored at room temperature and away from direct light. The commercial solution formulations must be stored under refrigeration. […] At each dose level shown in Table 2, the appropriate dose of doxorubicin is based on the patient's actual calculated body surface area (BSA) at the beginning of each 21-day cycle. […]

phosphorylated EGFR = assay: EGFR phosphorylation in stimulated A549 cells (immunoprecipitation, western blot, densitometry); type: cell-based; details: 24 hours, then 10% fetal bovine serum + 50 ng/ml EGF for 3 hours, FIG. 4
Protocol: The A549 lung adenocarcinoma cell line was grown under normal cell culture conditions. The cells were plated in 100 mm^2 dishes in RPMI 1640 culture medium containing 1% penicillin/streptomycin, 1% glutamine and 10% fetal bovine serum. The cells were allowed to grow to >95% confluence. Thereafter, the cells were rinsed twice with phosphate-buffered saline followed by the addition of low-serum medium (RPMI 1640 with 1% penicillin/streptomycin and 0.5% fetal bovine serum).
Lometrexol was added in amounts sufficient to achieve incubation concentrations of 0.004, 0.02, 0.1, 0.5 and 2.5 μg/ml. The cells were incubated in the low-serum medium with lometrexol for 24 hours. After the 24-hour incubation, the concentration of fetal bovine serum was increased to 10%, and 50 ng/ml EGF was added to the cells in the presence of lometrexol. The cells were incubated with these stimulants (fetal bovine serum and EGF) for 3 hours. […] The immunoprecipitated protein was separated by SDS-PAGE, and the amount of phosphorylated EGFR was determined by western blot analysis of the resulting gel using chemiluminescent detection. The blot was probed with an antibody that is specific for the activated, phosphorylated form of EGFR (Chemicon, Temecula, Calif.), and the resulting photographic film was analyzed by densitometry.

MDA-MB-231 cells = assay: MTT cell proliferation assay, kinase inhibitor plus lometrexol, MDA-MB-231 cells; type: cell-based; details: showing only mild growth inhibition by EGF
Protocol: as §1, with “cells. […]” for “cells.”

[3] = tested on: ATP concentration in A549 cells; assay: Cellular ATP by luminescent method CellTiter Glo in A549 cells; type: cell-based; details: 24 hours incubation with lometrexol, FIG. 5, average of triplicate measurements
Protocol: A549 cells were propagated in 75 cm^2 flasks in RPMI 1640 medium with 10% fetal bovine serum, 1% penicillin/streptomycin, and 1% glutamine. To initiate the experiment, cells were plated into 96-well plates at 3000 and 10,000 cells/well with the top and bottom rows containing media only as a negative control. The cells were incubated at 37° C. for 15 hours to allow the cells to adhere. After 15 hours, freshly prepared solutions of lometrexol at the desired dose were added to the media in varying concentrations. Each plate also contained wells that contained medium only and no added compound. The cells were then incubated for 24 hours and the amount of ATP was determined by a luminescent method, CellTiter Glo™ (Promega, Madison, Wis.). Concurrently, the cell number was determined in duplicate rows so that the relative ATP concentration per number of cells could be determined. As depicted in FIG. 5 (average of triplicate measurements), the ATP concentration per million cells was decreased in cells treated with lometrexol at concentrations similar to those where the EGFR phosphorylation was effected and at concentrations similar to those which potentiate kinase inhibitors.

[4] = cited from earlier work; remark: listed apart in the source

indirubin-3′-monoxime
IC50 in A549 cells in the presence of increasing concentrations of lometrexol (A549 cells): decrease in IC50

COc1cc2ncnc(Nc3cccc(Cl)c3)c2cc1OC [tyrphostin AG1478, 4-(3-chloroanilino)-6,7-dimethoxyquinazoline]
IC50 in A549 cells in the presence of increasing concentrations of lometrexol (A549 cells): decrease in IC50

COc1cccc2c1C(=O)c1c(O)c3c(c(O)c1C2=O)C[C@@](O)(C(=O)CO)C[C@@H]3O[C@H]1C[C@H](N)[C@H](O)[C@H](C)O1 [Doxorubicin HCl]
storage time of reconstituted solution ([1]; reconstituted with sterile water for injection or 0.9% sodium chloride): up to 24 hours
stability of lyophilised powder ([1]; stored at room temperature and away from direct light): 2 years

Nc1nc2c(c(=O)[nH]1)C[C@@H](CCc1ccc(C(=O)N[C@@H](CCC(=O)O)C(=O)O)cc1)CN2 [Lometrexol sodium]
time to use after reconstitution [2]: ≤ 1 h

Nc1nc2c(c(=O)[nH]1)CC(CCc1ccc(C(=O)N[C@@H](CCC(=O)O)C(=O)O)cc1)CN2 (stereo partly shown) [lometrexol, 5,10-dideazatetrahydrofolic acid]
lometrexol potentiation of kinase inhibitor growth inhibition (A549 cells; cell line sensitive to EGF stimulation): potentiation is observed
relative amount of phosphorylated-EGFR per mg protein in the cell lysate (phosphorylated EGFR; lometrexol 0.004, 0.02 and 0.1 μg/ml): 37-56 % of control
relative phosphorylated-EGFR (phosphorylated EGFR; lometrexol 0.5 and 2.5 μg/ml): ≥ 3 % of the activated-control
lometrexol potentiation of kinase inhibitor growth inhibition (MDA-MB-231 cells): no observed potentiation
ATP concentration per million cells [3]: decreased

Nc1ccn([C@@H]2O[C@H](CO)[C@@H](O)C2(F)F)c(=O)n1 [Gemcitabine HCl]
solubility in ethanol and polar organic solvents ([4]; ethanol and polar organic solvents): insoluble
solubility in methanol ([4]; methanol): slightly soluble
solubility in water ([4]; water): soluble

Reference: patent publication US20020156023A1, “Lometrexol combination therapy” (Tularik Inc., priority 2000, published 2002)
